{
  "source": "patent US4939138A",
  "about": "“2- and 3-aminomethyl-6-arylcarbonyl-2,3-dihydropyrrolo(1,2,3-DE)-1,4-benzoxazin es” (Sterling Drug Inc., priority 1989, dated 1990)",
  "key": {"[1]": {"test_system": "acetylcholine-induced abdominal constriction", "assay": "acetylcholine-induced abdominal constriction test (ACH)", "type": "in vivo, mice", "conditions": "for ED50: Mus musculus", "source_text": "(§1) The test procedures used to determine the analgesic activities of the compounds have been described in detail in the prior art and are as follows: The acetylcholine-induced abdominal constriction test, which is a primary analgesic screening test designed to measure the ability of a test agent to suppress acetylcholine-induced abdominal constriction in mice, described by Collier et al., Brit. J. Pharmacol. Chemotherap. 32, 295 (1968); a modification of the anti-bradykinin test, which is also a primary analgesic screening procedure, described by Berkowitz et al., J. Pharmacol. Exptl Therap. 177, 500-508 (1971), Blane et al., J. Pharm. Pharmacol 19, 367-373 (1967), Botha et al., Eur. J. Pharmacol. 6, 312-321 (1969) and Deffenu et al., J. Pharm. Pharmacol. 18, 135 (1966); the rat paw flexion test, described by Kuzuna et al., Chem. Pharm. Bull., 23, 1184-1191 (1975), Winter et al., J. Pharm. Exptl. Therap., 211, 678-685 (1979) and Capetola et al., J. Pharm. Exptl. Therap. 214, 16-23 (1980); and the mouse vas deferens adrenergic transmission test, described by Henderson et al., Brit. J. Pharmacol., 46, 764-766 (1972).\n(§2) In the acetylcholine-induced abdominal constriction test, the test compounds were administered either as suspensions in gum tragacanth (GT) or as aqueous solutions prepared by addition of just sufficient dilute aqueous methanesulfonic acid (MS) or dilute aqueous lactic acid (LA) to dissolve the compound The compounds are identified by the example number above where their preparations are described All data in the anti-bradykinin, rat writhing and Randall-Selitto tests were obtained on oral administration."}, "[2]": {"test_system": "acetic acid-induced writhing", "assay": "inhibition of acetic acid-induced writhing in the rat (RW)", "type": "in vivo, rat (male Sprague Dawley)", "conditions": "oral; for ED50: Rattus norvegicus", "procedure": "(§3) In order to further detail the analgesic profiles of the compounds of the invention, their activities in the inhibition of acetic acid-induced writhing assay in the rat, the inhibition of cyclooxygenase assay and a modification of the Randall-Selitto analgesic test were also determined The test procedure used to determine the inhibition of acetic acid-inducedwrithing in the rat is described as follows.\nMale Sprague Dawley rats (Taconic Farms) weighing between 160 and 200g were treated in a random and blind fashion with 1% gum tragacanth vehicle or test agent suspended or dissolved in 1% gum tragacanth. Rats were individually housed in plastic cages (28×18×12 cm) throughout the experiment. Forty-five minutes after drug treatment, 0.5 ml of 9% (w/v) acetic acid was administered intraperitoneally, and animals were returned to their cages for 10 minutes. Writhing is not normally seen during this 10 minute period. Each animal was then observed for a writhing response during a subsequent 10 minute interval (55-65 minutes post-drug treatment). A writhing response was defined as arching of the back with extension of the hindlimbs and contraction of abdominal muscles. […] Data were expressed as percent inhibition of the mean number of writhes in the vehicle treated control group. Data were evaluated for statistical significance by Dunnett's test, and ED50 's for inhibition of acetic acid-induced writhing were determined by the graded dose-response analysis of Tallarida and Murray, Manual of Pharmacologic Calculations with Computer Programs, Springer Verlag, New York (1981).\nas §2"}, "cyclooxygenase": {"test_system": "cyclooxygenase", "assay": "inhibition of cyclooxygenase assay (CO)", "type": "biochemical, mice", "procedure": "as §3\nThe test procedure used to determine cyclooxygenase inhibitory activity is described as follows.\nMale mice were decapitated and stomach and brain (cerebral cortex, hypothalamus and medulla) were rapidly dissected over ice. The brains were homogenized in 3 volumes of ice cold 0.1 M potassium phosphate buffer, pH 7.4 containing 10 mM EDTA and 1% BSA (w/v). The homogenate was centrifuged at 10,000 xg for 15 minutes. The resulting supernatant was decanted and centrifuged at 100,000 xg for 60 minutes yielding a crude microsomal pellet. The pellet was washed superficially three times in 3 volumes of 0.1 M potassium phosphate buffer before final resuspension in 1.5 volumes of 0.1 M potassium phosphate buffer containing 1 mM norepinephrine and 1 mM reduced glutathione. The microsomes (50 μl) were preincubated with 50 μl of indomethacin (0.3 μM), test compound or norepinephrine/glutathione-containing buffer for 5 minutes at room temperature. The enzyme reaction was initiated by the addition of 50 μl of ^14 C arachidonic acid to yield a final concentration of 10 μM. After a further incubation of 15 minutes at 37° C., the reaction was stopped by the addition of 50 μl of 4M formic acid. Blank values were determined by using microsomes boiled for 5 minutes but otherwise were treated similarly. The ^14 C-labelled material was extracted 3 times with 0.5 ml of ethyl acetate with intermediate centrifugations at 500 xg for 5 minutes to clarify the aqueous and organic phases. This procedure extracted >95% of the ^14 C-labelled materials. The ethyl acetate washes were added to tubes containing 5 μg each of PGE2, PGF2, PGD2, and 10 μg PGI2 in 25 μl of ethanol. The mixture was evaporated to dryness under nitrogen and the residue dissolved in 150 μl of chloroform:methanol (2:1). This solution was spotted on 5×20 cm silica gel plates and chromatographed with an ethyl acetate, trimethylpentane, acetic acid and water mixture (110:50:20:100 by volume) prepared by shaking the solvents and separating and discarding the organic phase. The prostaglandins were visualized in iodine vapor, the various spots were scraped, and the ^14 C-labelled prostaglandins quantitated by liquid scintillation spectroscopy in 10 ml of BIOFLUOR® or FLUORODYNE®.\nas §2"}, "mouse vas deferens": {"test_system": "mouse vas deferens", "assay": "mouse vas deferens adrenergic transmission test (MVD)", "conditions": "for IC50: concentration producing 50% of the maximum response", "source_text": "as §1\nAs before, the compounds are identified by the example number above where their preparations are described."}, "bradykinin": {"test_system": "bradykinin", "assay": "anti-bradykinin test (BDK/BRKD)", "type": "in vivo", "conditions": "oral", "source_text": "as §1, with “(1972). […]” for “(1972).”"}, "[3]": {"test_system": "brewers' yeast-induced hyperalgesia", "assay": "modification of the Randall-Selitto analgesic (paw pressure) test (R-S)", "type": "in vivo, rat (Sprague-Dawley)", "conditions": "Rattus norvegicus; oral; read-out: R-S minimum effective dose, MED", "procedure": "as §3\nThe modification of the Randall-Selitto analgesic test procedure used is described as follows:\nFemale Sprague-Dawley rats, weighing 60 to 95 grams, were routinely used. […] The rats were housed 10 per cage with food and water available ad libitum.\nThe Randall-Selitto Test device used was a UGO Basile Analgesy Meter (catalog no. 7200), with the flat-topped plinth on the bottom, acting as a platform upon which the hind paw of the rat was placed and the round-pointed pusher oriented downward. […]\nAnimals were given the test drug, p.o., two hours after the sub-plantar injection, four doses customarily being given, along with vehicle control and a positive control (Zomepirac). […] Treatments were assigned in such a way that both the range and the means of the baseline readings were as nearly equal as possible for all treatments. […]\nResults were analyzed with the Student's t-test. […]"}, "[4]": {"conditions": "po, aqueous methanesulfonic acid (MS)"}, "[5]": {"conditions": "p.o., dose level 100, aqueous methanesulfonic acid (MS)"}, "[6]": {"conditions": "p.o., dose level 100, suspension in gum tragacanth (GT)"}, "[7]": {"conditions": "30 μM, negative values = increases over controls, not demonstrated to differ significantly"}},
  "data": [
    {"smiles": "Cc1c(C(=O)c2cccc3ccccc23)c2cccc3c2n1C(CN1CCOCC1)CO3", "note": "(single isomer, unassigned; (+)) [2B(d), (+)-3-(4-morpholinylmethyl)-5-methyl-6-(1-naphthylcarbonyl)-2,3-dihydropyrrolo1,2,3-de]-1,4-benzoxazine methanesulfonate]", "values": [
      {"measurement": "ED50", "setting": "[1]; iv", "value": 0.027, "unit": "mg/kg"},
      {"measurement": "ED50", "setting": "[1]; [4]", "value": 33, "unit": "mg/kg"},
      {"measurement": "ED50", "setting": "[2]", "value": 7.5, "unit": "mg/kg"},
      {"measurement": "CO percent inhibition (% I)", "setting": "cyclooxygenase; 100 μM", "value": 9, "unit": "%"},
      {"measurement": "IC50", "setting": "mouse vas deferens", "value": "0.43 ± 0.1", "unit": "nM"}
    ]},
    {"smiles": "CS(=O)(=O)O.Cc1c(C(=O)c2cccc3ccccc23)c2cccc3c2n1C(CN1CCOCC1)CO3", "note": "(single isomer, unassigned; (-)) [2B(1), (-)-3-(4-morpholinylmethyl)-5-methyl-6-(1-naphthylcarbonyl)-2,3-dihydropyrrolo[1,2,3-de]-1,4-benzoxazine methanesulfonate]", "values": [
      {"measurement": "ACH percent inhibition", "setting": "[1]; i.v., dose level 0.3", "value": 20, "unit": "%"},
      {"measurement": "ACH percent inhibition", "setting": "[1]; i.v., dose level 1", "value": 40, "unit": "%"},
      {"measurement": "ACH percent inhibition", "setting": "[1]; i.v., dose level 3", "value": 10, "unit": "%"},
      {"measurement": "ACH percent inhibition", "setting": "[1]; i.v., dose level 5.5", "value": 30, "unit": "%"},
      {"measurement": "ACH percent inhibition", "setting": "[1]; p.o., dose level 10, aqueous methanesulfonic acid (MS)", "value": 10, "unit": "%"},
      {"measurement": "ACH percent inhibition", "setting": "[1]; p.o., dose level 30, aqueous methanesulfonic acid (MS)", "value": 10, "unit": "%"},
      {"measurement": "ACH percent inhibition", "setting": "[1]; [5]", "value": 10, "unit": "%"},
      {"measurement": "ACH percent inhibition", "setting": "[1]; p.o., dose level 173, aqueous methanesulfonic acid (MS)", "value": 30, "unit": "%"},
      {"measurement": "RW percent inhibition", "setting": "[2]; dose level 100", "value": 12, "unit": "%"},
      {"measurement": "CO percent inhibition (% I)", "setting": "cyclooxygenase; 100 μM", "value": 10.4, "unit": "%"},
      {"measurement": "MVD percent inhibition", "setting": "mouse vas deferens; 10 μM", "value": 37, "unit": "%"},
      {"measurement": "IC50", "setting": "mouse vas deferens; methanesulfonate", "value": "> 10000", "unit": "nM"}
    ]},
    {"smiles": "COc1ccc(C(=O)c2c(C)n3c4c(cccc24)OCC3CN2CCOCC2)cc1", "note": "(stereo not shown) [Example 1A, 3-(4-morpholinylmethyl)-5-methyl-6-(4-methoxybenzoyl)-2,3-dihydropyrrolo[1,2,3-de]-1,4-benzoxazine]", "values": [
      {"measurement": "BRKD percent inhibition", "setting": "bradykinin; dose level 300", "value": 0, "unit": "%"},
      {"measurement": "ED50", "setting": "[1]; iv", "value": 3.4, "unit": "mg/kg"},
      {"measurement": "ACH percent inhibition", "setting": "[1]; [5]", "value": 30, "unit": "%"},
      {"measurement": "ACH percent inhibition", "setting": "[1]; [6]", "value": 20, "unit": "%"},
      {"measurement": "RW percent inhibition", "setting": "[2]; dose level 100", "value": 50.6, "unit": "%"},
      {"measurement": "RW percent inhibition", "setting": "[2]; dose level 300", "value": 23, "unit": "%"},
      {"measurement": "CO percent inhibition (% I)", "setting": "cyclooxygenase; [7]", "value": 19, "unit": "%"},
      {"measurement": "IC50", "setting": "mouse vas deferens", "value": "123 ± 13", "unit": "nM"}
    ]},
    {"smiles": "Cc1c(C(=O)c2cccc3ccccc23)c2cccc3c2n1C(CN1CCOCC1)CO3", "note": "(stereo not shown) [Example 1B, 3-(4-morpholinylmethyl)-5-methyl-6-(1-naphthylcarbonyl)-2,3-dihydropyrrolo1,2,3-de]-1,4-benzoxazine methanesulfonate]", "values": [
      {"measurement": "ED50", "setting": "bradykinin", "value": 35, "unit": "mg/kg"},
      {"measurement": "ED50", "setting": "[1]; iv", "value": 0.25, "unit": "mg/kg"},
      {"measurement": "ED50", "setting": "[1]; [4]", "value": 33, "unit": "mg/kg"},
      {"measurement": "ACH percent inhibition", "setting": "[1]; [6]", "value": 30, "unit": "%"},
      {"measurement": "ACH percent inhibition", "setting": "[1]; s.c., dose level 100", "value": 73, "unit": "%"},
      {"measurement": "ED50", "setting": "[2]", "value": 8.6, "unit": "mg/kg"},
      {"measurement": "CO percent inhibition (% I)", "setting": "cyclooxygenase; [7]", "value": -35, "unit": "%"},
      {"measurement": "minimal effective dose", "setting": "[3]", "value": 0.003, "unit": "mg/kg"}
    ]},
    {"smiles": "Cc1c(C(=O)c2ccc3ncccc3c2)c2cccc3c2n1C(CN1CCOCC1)CO3", "note": "(stereo not shown) [Example 1C]", "values": [
      {"measurement": "ED50", "setting": "[1]; iv", "value": 1.8, "unit": "mg/kg"},
      {"measurement": "ED50", "setting": "[1]; po, vehicle not given", "value": 27, "unit": "mg/kg"},
      {"measurement": "ACH percent inhibition", "setting": "[1]; s.c., dose level 100, suspension in gum tragacanth (GT)", "value": 0, "unit": "%"},
      {"measurement": "ED50", "setting": "[2]", "value": 3.5, "unit": "mg/kg"},
      {"measurement": "CO percent inhibition (% I)", "setting": "cyclooxygenase; [7]", "value": -26.2, "unit": "%"},
      {"measurement": "IC50", "setting": "mouse vas deferens", "value": "21 ± 0.65", "unit": "nM"}
    ]},
    {"smiles": "COc1ccc(C(=O)c2cn3c4c(cccc24)OCC3CN2CCOCC2)cc1", "note": "(stereo not shown) [Example 2C, 3-(4-morpholinylmethyl)-6-(4-methoxybenzoyl)-2,3-dihydropyrrolo[1,2,3-de]-1,4-benzoxazine]", "values": [
      {"measurement": "ED50", "setting": "[1]; iv", "value": 3.9, "unit": "mg/kg"},
      {"measurement": "ACH percent inhibition", "setting": "[1]; [6]", "value": 30, "unit": "%"},
      {"measurement": "CO percent inhibition (% I)", "setting": "cyclooxygenase; [7]", "value": -8.9, "unit": "%"},
      {"measurement": "IC50", "setting": "mouse vas deferens", "value": "44 ± 9.8", "unit": "nM"}
    ]}
  ]
}
